Patent publication US20220361493A1, “HERBICIDE COMPOSITION” (UPL CORPORATION LIMITED, priority 2019, published 2022)

Experiments:
Experiment in all cases: Herbicidal efficacy, % weed control
Type in all cases: in vivo
Spermacoce verticillata = conditions: 35 days after administration, Table 2
Description: (§1) This effectiveness of all treatments can be evaluated according to Colby's equation. In the Colby's equation given below, E is the expected efficacy of combination of Propisochlor and another herbicide, X is the observed efficacy of Propisochlor and Y is the observed efficacy of other herbicide. Observed efficacy values i.e. X and Y are % weed control for Propisochlor and another herbicide. If observed efficacy of combination of Propisochlor and other herbicide is greater than its expected efficacy, then combination is determined to be synergistic. If observed efficacy is equal to or less than expected efficacy, then combination is determined to be non-synergistic.
(§2) Experiments were carried out to evaluate the efficacy of combinations of present invention.
(§3) Herbicidal activity of synergistic mixtures of the combinations of present invention is represented in below tables.

Brachiaria decumbens = conditions: 35 days after administration
Description: as §1, §2, §3

Ipomoea hederifolia = conditions: 35 days after administration, Table 2
Description: as §1, §2, §3

Brachiaria plantaginea = conditions: 35 days after administration, Table 1
Description: as §1, §2, §3

Commelina benghalensis = conditions: 35 days after administration
Description: as §1, §2, §3

Cenchrus echinatus = conditions: 35 days after administration
Description: as §1, §2, §3

Ipomoea grandifolia = system: Ipomoea grandifolia
Description: as §1, §2, §3

Eleusine indica = conditions: 35 days after administration, Table 2
Description: as §1, §2, §3

CCc1cccc(C)c1N(COC(C)C)C(=O)CCl [Propisochlor]
% Weed control Spermacoce verticillata (Spermacoce verticillata; 525 g ai/ha): 92.75%
% Weed control Spermacoce verticillata (Spermacoce verticillata; 675 g ai/ha): 95.75%
% Weed control Brachiaria decumbens (Brachiaria decumbens; 540 g ai/ha, Table 9): 68.8%
% Weed control Brachiaria decumbens (Brachiaria decumbens; 1080 g ai/ha, Table 3): 92.0%
% Weed control Brachiaria decumbens (Brachiaria decumbens; 1080 g ai/ha, Table 6): 75.0%
% Weed control Brachiaria decumbens (Brachiaria decumbens; 1200 g ai/ha, Table 1): 85.75%
% Weed control Ipomoea hederifolia (Ipomoea hederifolia; 525 g ai/ha): 26.25%
% Weed control Ipomoea hederifolia (Ipomoea hederifolia; 675 g ai/ha): 27%
% Weed control Brachiaria plantaginea (Brachiaria plantaginea; 1200 g ai/ha): 84.50%
% Weed control Commelina benghalensis (Commelina benghalensis; 1080 g ai/ha, Table 6): 90.8%
% Weed control Commelina benghalensis (Commelina benghalensis; 1080 g ai/ha, Table 8): 90.8%
% Weed control Commelina benghalensis (Commelina benghalensis; 1080 g ai/ha, Table 10): 90.8%
% Weed control Commelina benghalensis (Commelina benghalensis; 1200 g ai/ha, Table 1): 92.00%
% Weed control Cenchrus echinatus (Cenchrus echinatus; 540 g ai/ha, Table 4): 71.3%
% Weed control Cenchrus echinatus (Cenchrus echinatus; 540 g ai/ha, Table 5): 71.3%
% Weed control Cenchrus echinatus (Cenchrus echinatus; 540 g ai/ha, Table 9): 91.8%
% Weed control Cenchrus echinatus (Cenchrus echinatus; 1080 g ai/ha, Table 4): 88.8%
% Weed control Cenchrus echinatus (Cenchrus echinatus; 1080 g ai/ha, Table 5): 88.8%
% Weed control Ipomoea grandifolia (Ipomoea grandifolia; 540 g ai/ha, 21 days after administration, Table 7): 7.5%
% Weed control Ipomoea grandifolia (Ipomoea grandifolia; 540 g ai/ha, 35 days after administration, Table 9): 0.0%
% Weed control Ipomoea grandifolia (Ipomoea grandifolia; 540 g ai/ha, 35 days after administration, Table 11): 53.8%
% Weed control Ipomoea grandifolia (Ipomoea grandifolia; 1080 g ai/ha, 21 days after administration, Table 7): 22.5%
% Weed control Ipomoea grandifolia (Ipomoea grandifolia; 1080 g ai/ha, 35 days after administration, Table 10): 45.0%
% Weed control Ipomoea grandifolia (Ipomoea grandifolia; 1080 g ai/ha, 35 days after administration, Table 11): 55.50%
% Weed control Eleusine indica (Eleusine indica; 525 g ai/ha): 99.75%
% Weed control Eleusine indica (Eleusine indica; 675 g ai/ha): 100.00%

COC(=O)[C@@H](C)Oc1ccc(Oc2ncc(C(F)(F)F)cc2Cl)cc1 [Haloxyfop-p-methyl]
% Weed control Brachiaria decumbens (Brachiaria decumbens; 62.1 g ai/ha, Table 3): 11.3%

C#CCN1C(=O)COc2cc(F)c(N3C(=O)C4=C(CCCC4)C3=O)cc21 [Flumioxazin]
% Weed control Brachiaria decumbens (Brachiaria decumbens; 50 g ai/ha, Table 1): 63.75%
% Weed control Brachiaria plantaginea (Brachiaria plantaginea; 50 g ai/ha): 53.75%
% Weed control Commelina benghalensis (Commelina benghalensis; 50 g ai/ha, Table 1): 90.25%

CN(C)C(=O)Nc1ccc(Cl)c(Cl)c1 [Diuron]
% Weed control Brachiaria decumbens (Brachiaria decumbens; 1000 g ai/ha, Table 9): 3.8%
% Weed control Brachiaria decumbens (Brachiaria decumbens; 2000 g ai/ha, Table 9): 12.5%
% Weed control Commelina benghalensis (Commelina benghalensis; 500 g ai/ha, Table 8): 0%
% Weed control Cenchrus echinatus (Cenchrus echinatus; 1000 g ai/ha, Table 9): 5.0%
% Weed control Cenchrus echinatus (Cenchrus echinatus; 2000 g ai/ha, Table 9): 1.3%
% Weed control Ipomoea grandifolia (Ipomoea grandifolia; 500 g ai/ha, 21 days after administration, Table 7): 0.0%
% Weed control Ipomoea grandifolia (Ipomoea grandifolia; 1000 g ai/ha, 35 days after administration, Table 9): 0.0%
% Weed control Ipomoea grandifolia (Ipomoea grandifolia; 2000 g ai/ha, 35 days after administration, Table 9): 0.0%

CN(C)c1nc(=O)n(C2CCCCC2)c(=O)n1C [Hexazinone]
% Weed control Brachiaria decumbens (Brachiaria decumbens; 125 g ai/ha, Table 6): 11.3%
% Weed control Commelina benghalensis (Commelina benghalensis; 125 g ai/ha, Table 6): 45.0%

Cc1nn(-c2cc(NS(C)(=O)=O)c(Cl)cc2Cl)c(=O)n1C(F)F [Sulfentrazone]
% Weed control Spermacoce verticillata (Spermacoce verticillata; 75 g ai/ha): 92.25%
% Weed control Ipomoea hederifolia (Ipomoea hederifolia; 75 g ai/ha): 98.00%
% Weed control Eleusine indica (Eleusine indica; 75 g ai/ha): 90.00%

CCCN(CCC)c1c([N+](=O)[O-])cc(C(F)(F)F)cc1[N+](=O)[O-] [Trifluralin]
% Weed control Ipomoea grandifolia (Ipomoea grandifolia; 300 g ai/ha, 35 days after administration, Table 11): 0.0%

CCSC(C)CC1CC(=O)C(/C(CC)=N/OC/C=C/Cl)=C(O)C1 (stereo not drawn) [Clethodim]
% Weed control Cenchrus echinatus (Cenchrus echinatus; 120 g ai/ha, Table 4): 0.0%

CNC(=O)N(C)c1nnc(C(C)(C)C)s1 [Tebuthiuron]
% Weed control Commelina benghalensis (Commelina benghalensis; 400 g ai/ha, Table 10): 0.0%
% Weed control Ipomoea grandifolia (Ipomoea grandifolia; 400 g ai/ha, 35 days after administration, Table 10): 12.5%

CCOC(=O)[C@@H](C)Oc1ccc(Oc2cnc3cc(Cl)ccc3n2)cc1 [Quizalafop-p-ethyl]
% Weed control Cenchrus echinatus (Cenchrus echinatus; 87.5 g ai/ha, Table 5): 77.5%
